Consider four compounds from US11311525B2, “Use of alpha 7 nicotinic acetylcholine receptor agonists” (Novartis AG, priority 2013, dated 2022).

The test system of one data set is brain tMHA levels. In words: Brain tele-methylhistamine (tMHA) levels by LC-MS. In kind it is in vivo, mice. The note with it: oral, 30 minutes after administration. The protocol: Histamine (HA) is released all over the brain by tuberomammillary nucleus neurons. […] HA is metabolized by histamine-N-methyltransferase to tele-methylhistamine (tMHA) in some tissues, including brain.
Mice (n=8) were treated during the first hour of the lights-on period and sacrificed 30 min later. Brain tissue was collected and subjected to LC-MS analysis (Croyal et al. Analytical Biochemistry, 2011, 409:28-36) to determine t-MHA levels.

The subject of a further data set is Cynomolgus monkey. In words: Signs for emergence from ketamine/sevoflurane anesthesia in nonhuman primate (PET experiment). In kind it is in vivo. As to the method: Said experiment was performed on the α7 nAChR in the non-human primate (NHP) brain.
An animal (Cynomolgus monkey, male, 5.8 kg) was anesthesized for the entire duration of the PET experiment, i.e. for approximately 7.5 hours. Due to the nature of these experiments, it is crucial that anesthesia is maintained.
General anesthesia was induced by i.m. injection of ketamine hydrochloride (10 mg/kg, Ketaminol, Intervet AB). The animal was intubated and general anesthesia was maintained by inhalational administration of sevoflurane (1.5-8%, Abbott Scandinavia AB). Body temperature was maintained by Bair Hugger Model 505 (Arizant Healthcare Inc., Eden Prairie, Minn., USA). ECG, pulse, blood pressure, respiration rate, oxygen saturation and tidal CO2 level were monitored continuously during the experiment. Ventilation of the animal (breathing frequency and volume) was controlled by machine during the general anesthesia. The animal underwent two consecutive PET scans. The PET ligand was administered i.v. at doses too low to have a pharmacodynamic effect (i.e. total dose of 0.16 and 0.25 μg). Before the start of the second PET scan, 10 mg/kg of compound A-1 was administered to the animal using an oral gavage tube.

The next data set concerns mice. The data set is described as follows: EEG assessment of sleep behavior and vigilance stage. In kind it is in vivo. The note with it: for Active wake (β and γ frequencies), mean difference drug-vehicle / NREM (δ frequency), mean difference drug-vehicle / Quiet wake (α frequency), mean difference drug-vehicle / REM (θ frequency), mean difference drug-vehicle: 30 mg/kg oral. As to the method: Animals have temporal skull EEG electrodes implanted which are connected to transmitters. Animals were group-housed (2-4) per cage at a constant temperature of 22±1° C., on a 12:12 light-dark schedule. The EEG is recorded via a receiver and stored on a PC for further analysis. EEG is used to assess and to quantify sleep behavior and vigilance stage.
Animals were given a 1-day period of acclimatization in the recording cages with recording cables connected. On the 1st day of the experiment, EEG recordings were made continuously during a 22-hours period beginning at 11 A.M., 15 min after vehicle administration. On the second day of the experiment, EEG recordings were carried out in the same way, but 15 minutes after drug administration. In this way, each animal served as its own control. 10 animals were recorded from simultaneously in each experiment. Automatic evaluation of the nycthemeral cycle (REM sleep, classical sleep, wakefulness and an awake non-vigilant state termed “drowsiness”) was performed as described (Vigouret et al., 1978 Pharmacology 16 Suppl 1:156-73). In the present context, “quiet wake” and “active wake”, describe conscious animals in a resting and an active state, respectively, while “REM” and “NREM” represent sleep states.
FIG. 3 depicts the effects of 30 mg/kg compound B-1, orally administered 6 h after lights on (9:00) in mice (n=10) on quiet wake (α frequency, 9.5-12.5 Hz), active wake (β frequency, 12.5-30.5 Hz; and γ frequency, >30.5 Hz), REM sleep (θ frequency, 4.5-9.5 Hz) and NREM sleep (δ frequency, <4.5 Hz). Assessment period shown is 3 hours.

The next data set has as its system orexin-deficient mice. In words: Orexin-deficiency model: number of narcoleptic episodes (behavioral arrests). In kind it is in vivo. The text has this:
Male transgenic mice with a knockout of the orexin peptide gene are used. Orexin-deficient mice express a phenotype with cataplexy events (observed as ‘behavioral arrests’) and a disrupted sleep pattern including fragmented sleep and sleepiness in their active period.
The animals are observed and videotaped via infrared cameras during the first hours of the lights-off period which is the active phase of nocturnal rodents like mice. At this time, orexin-deficient mice show the most ‘behavioral arrests’. The number of these events can be furthermore increased by presenting a new environment. For this purpose, new saw dust, a running wheel, marbles and tunnels are placed in the test environment. The number of ‘behavioral arrests’ are offline counted by the experimenter for each hour of recording. Behavioral arrests were defined by phases of total inactivity outside the next box, which last longer than 10 second, preceded and followed by robust locomotor activity (see also Scammell et al., 2009, Sleep 32(1): 111-116). Some of the animals have temporal skull EEG electrodes implanted which are connected to transmitters. The EEG is recorded via a receiver and stored on a PC for further analysis. EEG is used to assess and to quantify sleep behavior and vigilance stage.
A cross-over design is used because of the high inter- and intra-individual variability of the behaviors to be observed. Furthermore, to avoid habituation to the test environment, the animals are only tested once per week in the test environment. During the remaining days, the animals are in their homecage.
For each experimental session, 3-4 mice are put into the test environment 3 hours before lights-off. The first experimental session (week 1) is used to get a baseline (without treatment). The second and third sessions (weeks 2+3) are used for treatment (vehicle & compound, cross-over design, administration 5 minutes before lights-off). The fourth and last experimental session is again without treatment to evaluate a post-treatment baseline.

The conditions of data set [1]: cited from earlier work.
Where [2] appears, read: 30 mg/kg oral 6 h after lights on, 3 hours assessment.

In the case of `C[C@H](OC(=O)N[C@@H]1CN2CCC1CC2)c1ccccc1F` [A-1, (S)-(1-aza-bicyclo[2.2.2]oct-3-yl)-carbamic acid (S)-1-(2-fluoro-phenyl)-ethyl ester], the “brain tMHA levels” value in the data set with brain tMHA levels (10 mg/kg dose) is “significant elevation”. Also, in the data set on Cynomolgus monkey (10 mg/kg oral gavage, fifteen minutes after administration, sevoflurane 2.9%), the “change in breathing behavior (sign for emergence from general anesthesia)” value is recorded as “shallow breathing was observed”. Moreover, the “doses of sevoflurane necessary to maintain anesthesia after the compound” value in the data set with Cynomolgus monkey (rest of experiment (about two hours) after 10 mg/kg oral, 2.6-2.9% before the compound) is 3.0-3.7%.
For the compound `Cc1ccc(-c2ccc(O[C@H]3CN4CCC3CC4)cn2)cc1` [B-1, (R)-3-(6-p-tolyl-pyridin-3-yloxy)-1-aza-bicyclo[2.2.2]octane], the “brain tMHA levels” value in the data set with brain tMHA levels (all doses tested) is “significantly elevated”. In addition, in the data set on mice (setting [2]), the “effect on NREM sleep” value is listed as “decline of NREM sleep” and the “effect on time spent in quiet wake” value is “increases the time spent in quiet wake”. In the data set with mice (time point 9:30), the “Active wake (β and γ frequencies), mean difference drug-vehicle” value (“Active wake … mean difference drug-vehicle” below) is given as 0.9 min; the “NREM (δ frequency), mean difference drug-vehicle” value was -12.4 min; the “Quiet wake (α frequency), mean difference drug-vehicle” value was 14.3 min; the “REM (θ frequency), mean difference drug-vehicle” value was -2.2 min. Besides, in the data set on mice (time point 10:30), the “Active wake … mean difference drug-vehicle” value amounted to 3.6 min; the “NREM (δ frequency), mean difference drug-vehicle” value was -7.1 min; the “Quiet wake (α frequency), mean difference drug-vehicle” value worked out at 6.1 min; the “REM (θ frequency), mean difference drug-vehicle” value is -2.1 min. In addition, in the data set on mice (time point 11:30), the “Active wake … mean difference drug-vehicle” value is 0.1 min; the “NREM (δ frequency), mean difference drug-vehicle” value worked out at 2.1 min; the “Quiet wake (α frequency), mean difference drug-vehicle” value is -1.8 min; the “REM (θ frequency), mean difference drug-vehicle” value is -0.9 min. Further, in the data set with mice (time point 12:30), the “Active wake … mean difference drug-vehicle” value amounted to 0.3 min; the “NREM (δ frequency), mean difference drug-vehicle” value is -0.1 min; the “Quiet wake (α frequency), mean difference drug-vehicle” value was -0.9 min; the “REM (θ frequency), mean difference drug-vehicle” value is -0.2 min. Moreover, in the data set on orexin-deficient mice (10 mg/kg orally directly before lights-off, p<0.05 Anova), the “decrease of number of narcoleptic episodes, first hour of the observation period” value is reported as “ca. 66%”.
Take `C[C@H]1[C@H](Oc2ccc(-c3ccc4[nH]ccc4c3)nn2)C2CCN1CC2` [B-4, (2S,3R)-3-[6-(1H-indol-5-yl)-pyridazin-3-yloxy]-2-methyl-1-aza-bicyclo[2.2.2]octane]: the “decrease of number of narcoleptic episodes, whole 4 hours observation period” value in the data set on orexin-deficient mice (3 mg/kg orally directly before lights-off, p=0.03) is “ca. 25%”. The “reduction of number of narcoleptic episodes, first hour” value with orexin-deficient mice (3 mg/kg orally directly before lights-off, p=0.04) was “ca. 47%”.
Take `CCCC(C)C1(CC)C(=O)NC(=S)NC1=O` (centres unmarked) [thiopentone]: the “dose remaining in the body” value in data set [1] (at 24 hours) is on record as at most 30%. In data set [1] (in vivo), the “elimination by oxidative metabolism in the liver, rate” value is 15 % per hour; the elimination half-life is 3.4 to 22 h; the “initial drug effect terminated by redistribution, time” value was 5 to 15 min.
